In patent US6011052A, “Pyrazolone derivatives as MCP-1 antagonists” (Warner-Lambert Company, priority 1997, dated 2000):

Experiments:
MCP-1 receptor = biological target: T1, MCP-1 receptor (Homo sapiens, UniProt P41597); assay: MCP-1 binding assay (125I-labeled MCP-1, THP-1 cell membranes); conditions: for IC50: THP-1 membranes, 0.2 nM 125I-MCP-1, 30 minutes at room temperature, read-out: Inhibition of MCP-1 Binding IC50; for inhibition at 10 µM: printed in the IC50 μM column, read-out: Inhibition of MCP-1 Binding, percent @ 10 μM
T1 construct: endogenous in cells; host or cells: THP-1 cells (ATCC TIB 202), selected for increased MCP-1 receptor expression
T1 sequence (P41597 1-360 isoform P41597-2): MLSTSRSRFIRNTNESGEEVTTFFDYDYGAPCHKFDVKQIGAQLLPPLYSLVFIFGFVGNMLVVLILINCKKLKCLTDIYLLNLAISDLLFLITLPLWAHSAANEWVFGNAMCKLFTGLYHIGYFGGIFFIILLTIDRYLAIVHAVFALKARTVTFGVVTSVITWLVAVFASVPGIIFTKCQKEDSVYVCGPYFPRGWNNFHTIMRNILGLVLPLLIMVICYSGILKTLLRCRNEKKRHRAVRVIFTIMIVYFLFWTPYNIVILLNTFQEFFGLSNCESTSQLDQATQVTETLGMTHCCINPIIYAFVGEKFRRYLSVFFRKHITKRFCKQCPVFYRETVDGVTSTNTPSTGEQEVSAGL
Experimental: Membranes used in the MCP-1 binding assay were prepared from THP-1 cells (human monocytic cell line source--American Type Culture Collection, Tumor Immunology Bank #202, Rockville, Md., accession no. ATCC TIB 202) selected for increased levels of expression of the MCP-1 receptor. Cells were harvested by centrifugation and washed twice in ice-cold PBS (phosphate-buffered saline) and the cell pellet was frozen at -80° C. in some cases. Cells were resuspended in ice-cold lysis buffer 5 mM HEPES (2-(4N-[2-hydroxyethyl] piperazin-1-yl)-N'-(2-ethanesulfonic acid), pH 7.5, 2 mM EDTA (ethylenediaminetetraacetic acid), 5 ug/ml each leupeptin, aprotinin, chymostatin (protease inhibitors), and 100 ug/ml PMSF (phenylmethane sulfonyl fluoride--also a protease inhibitor)) at a concentration of 5×10^7 cells/ml. The cell suspension was dounced 10-15 times using the B pestle (small pestle of tissue grinder--clearance is 0.07 mm; source--Fisher Scientific) on ice. Nuclei and debris were removed by centrifugation at 500-1000×g for 10 minutes at 4° C. The supernatant was transferred to a fresh tube and centrifuged at 25,000×g for 30 minutes at 4° C. The supernatant was aspirated and the pellet was resuspended in freezing buffer (10 mM HEPES, pH 7.5, 300 mM sucrose, 1 ug/ml each leupeptin, aprotinin, chymostatin, and 10 ug/ml PMSF) using a minihomogenizer until all clumps were resolved. Membranes were aliquoted and frozen at minus 70-85° C. until needed. Typical binding assays used 10-20 ug/well of total membrane protein as determined with a standard protein assay (e.g. BioRad, Richmond, Calif.) or: as determined with a Bradford protein assay (e.g. BioRad, Richmond, Calif.).
For binding, different amounts of membranes were included in the binding reaction along with 0.2 nM I^125 -labeled MCP-1 (Amersham, Arlington Heights, Ill.) with or without unlabeled cold competitor MCP-1 (Peprotech, Rocky Hill, N.J.) (at 500 nM). Binding reactions were performed in a final volume of 100 ul in a binding buffer containing 10 mM HEPES, pH 7.2, 1 mM CaCl2, 5 mM MgCl2, 0.5% BSA (bovine serum albumin). After 30 minutes at room temperature, the binding reactions were filtered through GF/C filters (Whatman glass fiber filters, Type C) or GF/B unifilter plates (Parkard) which had been pre-soaked with 0.3% poly ethyleneimine and washed twice with binding buffer containing 0.5 M NaCl. Filters were dried and counted in a Beta-Plate scintillation counter using standard scintillation fluid. Final concentration of compound in the binding assay ranged from 0.05-100 μM. Compounds were dissolved in DMSO (dimethyl sulfoxide). Final concentrations of DMSO in the binding were kept constant at 0.05%.
IC50s were calculated using a 3-parameter logistic fit. Negative control contained same amount of DMSO vehicle asused in wells containing compound. Positive control contained 500 nM cold competitor MCP-1 in DMSO vehicle.

skin DHR sites = assay: Histologic analysis of skin DHR sites in rats; assay type: in vivo, rat (Lewis); conditions: 15 mg/kg per os, compared to sensitized animals given vehicle alone
Experimental: Inbred, approximately 200 gm, male Lewis rats were used in all experiments. Cutaneous delayed hypersensitivity (DHR) was induced as previously described (1). Briefly, rats were sensitized to KLH (keyhole limpet hemocyanis) (Sigma Chemical Co., St. Louis, Mo.) by administering 50 μg KLH in 0.1 ml complete Freund's adjuvant (CFA; Sigma Chemical Co.) into each of 4 subcutaneous sites. After 14 days, DHR was elicited by the challenge of 5 μg KLH in PBS into multiple intradermal sites on the back. Analysis was performed 24 hours after antigen challenge. For each experiment, there were at least three groups of animals of at least four animals in each group. One group of nonsensitized, naive animals was used as a negative control and received vehicle alone (consisting of 0.5% hydroxypropylmethylcellulose/0.2% Tween 80 in water) per os at the time of challenge. As positive controls, one group of sensitized animals received vehicle alone per os at the time of KLH challenge. A third group consisted of sensitized animals that received compound suspended in vehicle per os at the time of KLH challenge.
For histologic analysis, representative skin specimens were fixed in 10% phosphate-buffered formalin, processed by routine histological techniques, cut at a thickness of […], and sections stained with hematoxylin and eosin.

[1] = tested on: rat T cells, skin DHR sites; assay: T cell recruitment at sites of cutaneous delayed hypersensitivity (DHR) to KLH in rats; assay type: in vivo, rat (Lewis); conditions: 24 hours
Experimental: Inbred, approximately 200 gm, male Lewis rats were used in all experiments. Cutaneous delayed hypersensitivity (DHR) was induced as previously described (1). Briefly, rats were sensitized to KLH (keyhole limpet hemocyanis) (Sigma Chemical Co., St. Louis, Mo.) by administering 50 μg KLH in 0.1 ml complete Freund's adjuvant (CFA; Sigma Chemical Co.) into each of 4 subcutaneous sites. After 14 days, DHR was elicited by the challenge of 5 μg KLH in PBS into multiple intradermal sites on the back. Analysis was performed 24 hours after antigen challenge. For each experiment, there were at least three groups of animals of at least four animals in each group. […]
T cell recruitment at sites of DHR was quantified using methods previously described (1-4). […] The cells in the effluent were highly purified (>95%) rat T cells as assessed by anti-rat CD3 (monoclonal antibody KT3, Biosource International, Camarillo, Calif.) immunoreactivity by flow cytometry. […] Skin challenge sites (8 mm in diameter) were counted on a γ counter 24 hours after injection of radiolabeled T cells. Lung, liver, and spleen were also collected and counted as comparative indices for evaluation of input.
Statistical significance was determined using a paired student's t-test. […]

[2] = tested on: CD3-Blast (MCP-1 mediated chemotaxis); assay: MCP-1 mediated CD3-Blast chemotaxis assay (transendothelial migration over ECV304 cells); assay type: cell-based; conditions: Homo sapiens, ECV-304; for inhibition at 10 µM: range given for multiple replications
Experimental: Recombinant human MCP-1 was obtained from Peprotech (Rockey Hill, N.J.). […] RBCs were removed by hypotonic lysis. […] The cells are expanded and cultured for up to 3 weeks. […] The endothelial cells used for this assay were the endothelial cell line ECV304, obtained from the ECACE (Porton Downs, UK). Endothelial cells were cultured on 6.5 mm diameter Transwell culture inserts (Costar) with a […] pore size. […] Twenty four hours before the assay, 2×10^5 ECV304 cells were plated onto each innert of the 24 well chemotaxis plate and incubated at 37° C. MCP-1 (diluted in assay medium) with or without compounds, was added to the 24-well tissue culture plates in a final volume of […]. […] The cells that had migrated to the bottom chamber were enumerated using flow cytommetry. […] of the cell suspension from the lower chamber was placed in a tube, and relative cell counts were obtained by acquiring events for a set time period of 30 seconds. […] Background migration was determined by counting cells that migrated in the absence of MCP-1 in the lower chamber. This background migration of cells per 30 second count was substrated from the migration to MCP-1 to obtain specific migration. The percent inhibition by compounds of directed migration was determined by the following formula: 1 minus the specific migration in the presence of MCP-1 and compound, divided by the specific migration in the presence of just MCP-1. [drawing 13]

Compound	IC50 (MCP-1 receptor) [nM]	inhibition at 10 µM [2] [%]	also measured
COc1ccc(-c2[nH]nc(O)c2N)cc1 [Example 6]	1490		
Nc1c(C2CCCCC2)[nH][nH]c1=O [Example 1, 4-Amino 5-Cyclohexyl-3-Pyrazolone]	1270	33 to 70	inflammatory activity of skin sites (histology) (skin DHR sites): attenuated in inflammatory activity; mononuclear cells infiltration in deep dermis (histology) (skin DHR sites): reduced mononuclear cells infiltration in deep dermis; statistical significance of inhibition of T cell recruitment in rat DHR ([1]; 15 mg/kg per os at the time of antigen challenge): statistically significant inhibitory effect; inhibition of recruitment of 111In-labeled rat T cells to skin DHR sites ([1]; once per os at the time of antigen challenge, various doses (FIG. 3)): inhibited the recruitment of ^III In-labeled rat T cells to skin DHR sites in a dose-dependent fashion
Cn1[nH]c(=O)c(N)c1-c1ccccc1 [Example 5]		-23 to 48	inhibition at 10 µM (MCP-1 receptor): 90%
Cc1[nH][nH]c(=O)c1N [Example 10]		25 to 27	
Cc1c(N)c(=O)n(-c2ccccc2)n1C [Example 13]	2270		
Nc1c(-c2ccncc2)[nH][nH]c1=O [Example 3]		5 to 49	inhibition at 10 µM (MCP-1 receptor): 95%
Oc1[nH]nc2c1NCCC2 [Example 37]	5640		
Nc1c[nH]nc1O [Example 9]	1650		
NC(=O)c1[nH]n(-c2ccc(Cl)cc2Cl)c(=O)c1N [Example 19]	6240		IC50 ([2]; unit inferred, read-out: Inhibition of MCP-1 mediated chemotaxis of CD3-Blast, IC50): 480 nM
Nc1c(-c2ccccc2)n[nH]c1O [Example 4]	730	58 to 61	
